Measurements published in paper PMC9138991, “Effect of Trimethine Cyanine Dye- and Folate-Conjugation on the In Vitro Biological Activity of Proapoptotic Peptides” (Biomolecules, 2022).
Where a SMILES comes first, the peptide text is derived from it. Side-chain parts run from the residue outwards. [ ]: non-standard residue; d: D form. The star is where a group is joined. X1 = CN1/C(=C\C=C\C2=[N+](CCCCCC(=O)*)c3ccccc3C2(C)C)C(C)(C)c2ccccc21; Pteroyl = Nc1nc2ncc(CNc3ccc(C(=O)*)cc3)nc2c(=O)[nH]1; Cha = N[C@@H](CC1CCCCC1)C(=O)O; dCha = N[C@H](CC1CCCCC1)C(=O)O

Key:
Format in all cases: cell-based, human
KB cells = assay: Cell viability assay (CellTiter-Blue), KB cells; conditions: 7 × 10^3 cells per well, folic acid-depleted RPMI-1640 + 10% FBS, 1% DMSO, 24 h at 37 °C, then CellTiter-Blue 4 h, three biological replicates fitted in Origin, standard error in brackets
Protocol: (§1) KB and MCF7 cells were kindly gifted by Prof. Arwyn T. Jones (Cardiff University), HEK293 cells were purchased from Public Health England, and SK-OV-3 cells were purchased from National Collection of Authenticated Cell Cultures (https://cell-bank.org.cn/). Cells were routinely tested for mycoplasma infection. KB and SK-OV-3 cells were maintained in T75 flasks at 37 °C in a 5% CO2 atmosphere in folic acid-depleted Roswell Park Memorial Institute (RPMI)-1640 medium supplemented with 10% (v/v) fetal bovine serum (FBS). MCF7 and HEK293 cells were maintained in T75 flasks at 37 °C in a 5% CO2 atmosphere in Dulbecco’s Modified Eagle’s medium (DMEM) supplemented with 10% (v/v) FBS. Cells were maintained at a sub-confluent monolayer and split at 80–85% confluency. For splitting, cells were washed with PBS, trypsinized in 1 mL of trypsin, and 200 µL of the 1000 µL trypsin cell suspension was re-suspended in 12 mL fresh DMEM containing 10% (v/v) FBS in a new T75 flask. KB and SK-OV-3 cells were used for biological experiments after being maintained for at least 10 days in folic acid-depleted RPMI-1640 medium.
(§2) SK-OV-3, MCF7, and HEK293 cells were seeded at a density of 2 × 10^4 cells per well in a Nunc™ MicroWell™ 96-well plate and grown at 37 °C in a 5% CO2 atmosphere in DMEM supplemented with 10% (v/v) FBS for 24 h. KB cells were seeded at a density of 7 × 10^3 cells per well in a 96-well plate and grown at 37 °C in a 5% CO2 atmosphere in folic acid-depleted RPMI-1640 medium supplemented with 10% (v/v) FBS for 24 h. Stock solutions of compounds 2–6 and 11–13 were obtained by dissolving the compounds in sterile deionized water. Compounds 1, and 7–10 were dissolved in pure DMSO. The stock solutions were diluted into the proper medium (according to the cell line tested) supplemented with 10% FBS to the appropriate concentration, and cells in each well were incubated with 100 µL of the solution. The solutions in each well were then adjusted to a concentration of 1% (v/v) DMSO. After 24 h at 37 °C, 20 µL of CellTiter-Blue™ was added to each well. The plate was incubated for another 4 h at 37 °C before analysis on a Perkin Elmer Victor X plate reader (excitation 531 nm; emission 595 nm). Each data point was calculated from a minimum of nine values resulting from three biological replicates (i.e., cells split from three different passages); each biological replicate is calculated from three technical replicates (i.e., cells split from the same passage). Value from media-only with CellTiter-Blue™ was set at 0% viability. This value was then subtracted from the values from cell-only (i.e., non-treated) wells with CellTiter-Blue™ in each biological replicate and set as 100% viability. For treatments of Cy3-containing compounds, blanks were generated with cell-free wells containing the compounds incubated for 24 h before addition of CellTiter-Blue™. The fluorescent reading for these wells was deducted from the treatment readings. Dose-response fitting curves were generated using Origin, version 2019b, OriginLab Corporation, Northampton, MA, USA (Figures S21–S24, Supplementary Materials).
(§3) Comparison of cytotoxicity fitting curves was achieved by applying the extra sum-of-squares F test, performed using GraphPad Prism version 9 for Windows, GraphPad Software, La Jolla, California, USA (https://www.graphpad.com/). […] Statistical analysis on the flow cytometry data was achieved by applying the unpaired two-tailed t-test test, performed using GraphPad Prism version 9 for Windows, GraphPad Software, La Jolla California USA, USA (https://www.graphpad.com/).
(§4) Cytotoxicity of 1–13 was evaluated using the CellTiter-Blue assay on KB, MCF7, SK-OV-3, and HEK293 cells. KB cells are derived from human cervical cancer, while SK-OV-3 cells are derived from human ovarian cancer. […] This feature is of particular relevance in anticancer applications, as it can be exploited for selective targeting and delivery. […]

[1] = tested on: mitochondria of MCF7 cells; assay: Confocal microscopy, colocalisation with MitoTracker Green FM, MCF7 cells; conditions: 10 µM conjugate, 10 min at 37 °C; for Pearson's correlation coefficient of MitoTracker Green and Cy3 fluorescence: imaged at 20X; for Pearson's correlation coefficient of MitoTracker Green FM and Cy3 fluorescence: imaged at 63X
Protocol: (§5) SK-OV-3 and MCF7 were seeded at a density of 1 × 10^6 cells per well in glass-bottom culture dishes and grown at 37 °C in a 5% CO2 atmosphere in medium supplemented with 10% (v/v) FBS for 24 h. Cells were washed once with the RPMI-1640 medium supplemented with 10% (v/v) FBS before staining. Compounds 1, 5–10 were diluted into the RPMI-1640 medium supplemented with 10% (v/v) FBS to 10 μM and then added to the culture dishes, respectively. After 10-min incubation at 37 °C, cells were washed with RPMI-1640 medium supplemented with 10% (v/v) FBS. Cells were then treated with 50 nM MitoTracker Green FM and 10 μg/mL Hoechst33258 pre-formulated with RPMI-1640 medium supplemented with 10% (v/v) FBS and then incubated for another 10 min at 37 °C before analysis on ZEISS LSM 900 with Airyscan 2. The results were analyzed using Image J software (Figure 3 and Figures S4–S7 in Supplementary Materials).
(§6) Figure 3 Confocal microscopy images of SK-OV-3 and MCF7 cells treated with Cy3-containing conjugates. Cells were treated with 10 µM of the indicated conjugate for 10 min at 37 °C, washed, stained with 50 nM MitoTracker Green FM and 10 μg/mL Hoechst33258 for 10 min at 37 °C, washed, and imaged at 63X. Pearson’s correlation coefficients of MitoTracker Green FM and Cy3 fluorescence for compounds 1, 5, 6, 7, 8, 9, and 10 in SK-OV-3 and MCF cells are 0.75/0.64, 0.73/0.81, 0.91/0.61, 0.78/0.63, 0.85/0.69, 0.43/0.82, and 0.78/0.60, respectively. Excitation wavelengths for Hoechst33258, MitoTracker Green FM and Cy3 were set as 405, 488, and 561 nm, respectively. Scale bars denote 25 μm. Additional images, including the results of Hoechst33258 staining, are shown in Figure S4 (SK-OV-3 at 20X), Figure S5 (SK-OV-3 at 63X), Figure S6 (MCF7 at 20X) and Figure S7 (MCF7 at 63X), Supplementary Materials.

HEK293 cells = assay: Cell viability assay (CellTiter-Blue), HEK293 cells; conditions: 2 × 10^4 cells per well, DMEM + 10% FBS, 1% DMSO, 24 h at 37 °C, then CellTiter-Blue 4 h, three biological replicates fitted in Origin, standard error in brackets
Protocol: as §1, §2, §3, §4

MCF7 cells = assay: Cell viability assay (CellTiter-Blue), MCF7 cells; conditions: MCF7 cells, 2 × 10^4 cells per well, DMEM + 10% FBS, 1% DMSO, 24 h at 37 °C, then CellTiter-Blue 4 h; three biological replicates fitted in Origin, standard error in brackets
Protocol: as §1, §2, §3, §4

[2] = tested on: mitochondria of SK-OV-3 cells; assay: Confocal microscopy, colocalisation with MitoTracker Green FM, SK-OV-3 cells; conditions: 10 µM conjugate, 10 min at 37 °C; for Pearson's correlation coefficient of MitoTracker Green and Cy3 fluorescence: imaged at 20X; for Pearson's correlation coefficient of MitoTracker Green FM and Cy3 fluorescence: imaged at 63X
Protocol: as §5, §6

SK-OV-3 cells = assay: Cell viability assay (CellTiter-Blue), SK-OV-3 cells; conditions: 2 × 10^4 cells per well, medium + 10% FBS, 1% DMSO, 24 h at 37 °C, then CellTiter-Blue 4 h, three biological replicates fitted in Origin, standard error in brackets
Protocol: as §1, §2, §3, §4

Structure (SMILES) | EC50 (KB cells) | Pearson's correlation coefficient of MitoTracker Green and Cy3 fluorescence [1] | Pearson's correlation coefficient of MitoTracker Green FM and Cy3 fluorescence [1] | EC50 (HEK293 cells) | EC50 (MCF7 cells) | Pearson's correlation coefficient of MitoTracker Green and Cy3 fluorescence [2] | Pearson's correlation coefficient of MitoTracker Green FM and Cy3 fluorescence [2] | EC50 (SK-OV-3 cells)
CC(C)C[C@@H](NC(=O)[C@@H](CCCCN)NC(=O)[C@H](CCCCNC(=O)[C@H](CCC(=O)O)NC(=O)c1ccc(NCc2cnc3nc(N)nc(O)c3n2)cc1)NC(=O)CCCCC[N+]1=C(/C=C/C=C2\N(C)c3ccccc3C2(C)C)C(C)(C)c2ccccc21)C(=O)N[C@H](C)C(=O)N[C@H](CCCCN)C(=O)N[C@H](CC(C)C)C(=O)N[C@H](C)C(=O)N[C@H](CCCCN)C(=O)N[C@H](CCCCN)C(=O)N[C@H](CC(C)C)C(=O)N[C@H](C)C(=O)N[C@H](CCCCN)C(=O)N[C@H](CC(C)C)C(=O)N[C@H](C)C(=O)N[C@H](CCCCN)C(N)=O [Compound 9] | 22.4 µM | 0.61 | 0.82 | 6.9 µM | 13.2 µM | 0.52 | 0.43 | 8 µM
C[C@@H](NC(=O)[C@H](CC1CCCCC1)NC(=O)[C@@H](CCCCN)NC(=O)[C@@H](C)NC(=O)[C@@H](CC1CCCCC1)NC(=O)[C@@H](CCCCN)NC(=O)CCCCC[N+]1=C(/C=C/C=C2\N(C)c3ccccc3C2(C)C)C(C)(C)c2ccccc21)C(=O)N[C@H](CCCCN)C(=O)N[C@H](CCCCN)C(=O)N[C@@H](CC1CCCCC1)C(=O)N[C@H](C)C(=O)N[C@H](CCCCN)C(=O)N[C@H](CC1CCCCC1)C(=O)N[C@H](C)C(=O)N[C@H](CCCCN)C(N)=O [Compound 7] (X1-[dK][dCha][dA][dK][Cha][dA][dK][dK][Cha][dA][dK][dCha][dA][dK]-NH2) | 5.5 µM | 0.52 | 0.63 | 8.2 µM | 11.6 µM | 0.74 | 0.78 | 23 µM
C[C@@H](NC(=O)[C@H](CC1CCCCC1)NC(=O)[C@@H](CCCCN)NC(=O)[C@@H](C)NC(=O)[C@@H](CC1CCCCC1)NC(=O)[C@@H](CCCCN)NC(=O)[C@H](CCCCNC(=O)[C@H](CCC(=O)O)NC(=O)c1ccc(NCc2cnc3nc(N)nc(O)c3n2)cc1)NC(=O)CCCCC[N+]1=C(/C=C/C=C2\N(C)c3ccccc3C2(C)C)C(C)(C)c2ccccc21)C(=O)N[C@H](CCCCN)C(=O)N[C@H](CCCCN)C(=O)N[C@@H](CC1CCCCC1)C(=O)N[C@H](C)C(=O)N[C@H](CCCCN)C(=O)N[C@H](CC1CCCCC1)C(=O)N[C@H](C)C(=O)N[C@H](CCCCN)C(N)=O [Compound 10] (X1-K([Glu-Pteroyl])[dK][dCha][dA][dK][Cha][dA][dK][dK][Cha][dA][dK][dCha][dA][dK]-NH2) | 3.4 µM | 0.68 | 0.60 | 6.8 µM | 6.9 µM | 0.79 | 0.78 | 6 µM
CC(C)C[C@@H](NC(=O)[C@@H](CCCCN)NC(=O)CCCCC[N+]1=C(/C=C/C=C2\N(C)c3ccccc3C2(C)C)C(C)(C)c2ccccc21)C(=O)N[C@H](C)C(=O)N[C@H](CCCCN)C(=O)N[C@H](CC(C)C)C(=O)N[C@H](C)C(=O)N[C@H](CCCCN)C(=O)N[C@H](CCCCN)C(=O)N[C@H](CC(C)C)C(=O)N[C@H](C)C(=O)N[C@H](CCCCN)C(=O)N[C@H](CC(C)C)C(=O)N[C@H](C)C(=O)N[C@H](CCCCN)C(N)=O [Compound 6] | 3.5 µM | 0.81 | 0.61 | 5.3 µM | 5.7 µM | 0.74 | 0.91 | 6.39 µM
CC(C)C[C@H](NC(=O)[C@H](CCCCN)NC(=O)[C@H](C)NC(=O)[C@H](CC(C)C)NC(=O)[C@H](CCCCN)NC(=O)[C@H](CCCCN)NC(=O)[C@H](C)NC(=O)[C@H](CC(C)C)NC(=O)[C@H](CCCCN)NC(=O)[C@H](C)NC(=O)[C@H](CC(C)C)NC(=O)[C@H](CCCCN)NC(=O)[C@H](CCCCNC(=O)[C@H](CCC(=O)O)NC(=O)c1ccc(NCc2cnc3nc(N)nc(O)c3n2)cc1)NC(=O)CCCCC[N+]1=C(/C=C/C=C2\N(C)c3ccccc3C2(C)C)C(C)(C)c2ccccc21)C(=O)N[C@@H](C)C(=O)N[C@@H](CCCCN)C(N)=O [Compound 8] | 38.8 µM | 0.60 | 0.69 | 35.6 µM | 49.4 µM | 0.53 | 0.85 | 8.8 µM
